Test results from patent US20260184663A1, “INDENE COMPOUNDS, PHARMACEUTICAL COMPOSITIONS THEREOF, AND THEIR THERAPEUTIC APPLICATIONS” (NucMito Pharmaceuticals co. Ltd., priority 2022, published 2026).
Like-named read-outs stand apart in the source and are kept apart here.

How the values were obtained:
Assay type in all cases: cell-based
[1] = system: A549 (lung adenocarcinoma); assay: Antiproliferative activity (CCK-8 cell viability), A549; conditions: Homo sapiens, 72 h; for inhibition at 3.3 µM: Compound concentration: 3.3 μM; for inhibition at 10 µM: Compound concentration: 10 μM; for inhibition at 30 µM: Compound concentration: 30 μM
How it was run: (§1)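 Cells grown in DMEM (HepG2, SW480), MEM (HeLa) or F-12K (A549), each with 10% FBS, then exposed to compound at 3.3, 10 or 30 μM for 72 h at 37 °C. CCK-8 absorbance at 450 nm; viability expressed as percent of DMSO-treated cells, graded as growth inhibition bands.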

[2] = system: B16F10 (malignant melanoma); assay: Antiproliferative activity (CCK-8 cell viability), B16F10; conditions: Mus musculus, 72 h, read-out: Antiproliferative activity in cancerous cells, B16F10 (inhibition of cell growth); for inhibition at 3.3 µM: B16-F10, Compound concentration: 3.3 μM; for inhibition at 10 µM: B16-F10, Compound concentration: 10 μM
How it was run: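 B16F10 melanoma cells grown in DMEM with 10% FBS were plated in 96-well plates at 2,000-5,000 cells/well. After attachment they were exposed to compound in medium for 72 h at 37° C. CCK-8 solution (10 μL) was then added, and after 4 h at 37° C absorbance was read at 450 nm.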

HeLa (cervical cancer) = assay: Antiproliferative activity (CCK-8 cell viability), HeLa; conditions: Homo sapiens, 72 h; for inhibition at 3.3 µM: Compound concentration: 3.3 μM; for inhibition at 10 µM: Compound concentration: 10 μM; for inhibition at 30 µM: Compound concentration: 30 μM
How it was run: as §1

[3] = system: MDA-MB-231 (breast cancer); assay: Antiproliferative activity (CCK-8 cell viability), MDA-MB-231; conditions: Homo sapiens, 72 h; for inhibition at 3.3 µM: Compound concentration: 3.3 μM; for inhibition at 10 µM: Compound concentration: 10 μM; for inhibition at 30 µM: Compound concentration: 30 μM
How it was run: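 MDA-MB-231 breast cancer cells, grown in DMEM with 10% FBS, were plated in 96-well plates at 2,000-5,000 cells/well. Once attached, they were exposed to compound and incubated at 37° C. for 72 h. Viability was then measured with CCK-8 (10 μL per well, 4 h at 37° C.) by absorbance at 450 nm, relative to DMSO vehicle wells.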

HepG2 (liver cancer) = assay: Antiproliferative activity (CCK-8 cell viability), HepG2; conditions: Homo sapiens, 72 h; for inhibition at 3.3 µM: Compound concentration: 3.3 μM; for inhibition at 10 µM: Compound concentration: 10 μM; for inhibition at 30 µM: Compound concentration: 30 μM
How it was run: as §1

SW480 (colon cancer) = assay: Antiproliferative activity (CCK-8 cell viability), SW480; conditions: Homo sapiens, 72 h, read-out: Antiproliferative activity in cancerous cells, SW480 (inhibition of cell growth); for inhibition at 3.3 µM: Compound concentration: 3.3 μM; for inhibition at 10 µM: Compound concentration: 10 μM
How it was run: as §1

[4] = system: A431 (epidermoid carcinoma); assay: Antiproliferative activity (CCK-8 cell viability), A431; conditions: Homo sapiens, 72 h, read-out: Antiproliferative activity in cancerous cells, A431 (inhibition of cell growth); for inhibition at 3.3 µM: A-431, Compound concentration: 3.3 μM; for inhibition at 10 µM: A-431, Compound concentration: 10 μM
How it was run: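 A431 epidermoid carcinoma cells grown in DMEM with 10% FBS were plated at 2,000-5,000 cells/well in 96-well plates. After attachment they were exposed to compound at 3.3 μM, 10 μM, or 30 μM for 72 h at 37° C. Viability was then assessed by CCK-8 against DMSO vehicle-treated wells.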

[5] = system: alpha-smooth muscle actin (α-SMA); assay: Inhibition of TGF-β induced expression of alpha-smooth muscle actin (α-SMA) in CFSC cells (western blot); conditions: compound at 10 μM, TGF-β (10 ng/mL), 24 hours, band intensity vs TGF-β only
How it was run: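 CFSC hepatic stellate cells in serum-free DMEM treated 24 h at 37 °C with compound at 10 μM plus TGF-β (10 ng/mL). α-SMA measured by Western blot with β-actin, ECL detection, densitometry. Percent inhibition is decrease in band intensity versus TGF-β-only cells.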

[6] = read-out: Antiproliferative activity in cancerous cells, A549 (inhibition of cell growth)
[7] = read-out: Antiproliferative activity in cancerous cells, HELA (inhibition of cell growth)
[8] = read-out: Antiproliferative activity in cancerous cells, MDA-MB-231 (inhibition of cell growth)
[9] = read-out: Antiproliferative activity in cancerous cells, HepG2 (inhibition of cell growth)
[10] = read-out: Antiproliferative activity in cancerous cells, A549

Row | SMILES | inhibition at 3.3 µM [1, 6] [%] | inhibition at 10 µM [1, 6] [%] | inhibition at 3.3 µM [2] [%] | inhibition at 10 µM [2] [%] | inhibition at 3.3 µM (HeLa (cervical cancer); [7]) [%] | inhibition at 10 µM (HeLa (cervical cancer); [7]) [%] | inhibition at 3.3 µM [3, 8] [%] | inhibition at 10 µM [3, 8] [%] | inhibition at 3.3 µM (HepG2 (liver cancer); [9]) [%] | inhibition at 10 µM (HepG2 (liver cancer); [9]) [%] | inhibition at 3.3 µM (SW480 (colon cancer)) [%] | inhibition at 10 µM (SW480 (colon cancer)) [%] | inhibition at 3.3 µM [4] [%] | inhibition at 10 µM [4] [%] | inhibition at 10 µM [5] [%] | also measured
1 | CCCC1=C(CC(=O)O)c2cc(F)ccc2/C1=C\c1ccc(Oc2ccc(F)cc2)cc1 [C8, (Z)-2-(5-Fluoro-1-(4-(4-fluorophenoxy)benzylidene)-2-propyl-1H-inden-3-yl)-acetic acid] | ≥ 50 | ≥ 50 | 30 to 50 | ≥ 50 | ≥ 50 | ≥ 50 | ≥ 50 | ≥ 50 | ≥ 50 | ≥ 50 | < 30 | ≥ 50 | < 30 | ≥ 50 | > 80 | 
2 | CC1=C(CC(=O)O)c2cc(F)cc(F)c2/C1=C/c1ccc(COc2ccccc2)cc1 [E2, (E)-2-(5,7-Difluoro-2-methyl-1-(4-(phenoxymethyl)benzylidene)-1H-inden-3-yl)-acetic acid] | < 30 | 30 to 50 | ≥ 50 | ≥ 50 | ≥ 50 | ≥ 50 | < 30 | ≥ 50 | 30 to 50 | ≥ 50 | ≥ 50 | ≥ 50 | 30 to 50 | ≥ 50 | 50 to 80 | inhibition at 30 µM [1, 6]: ≥ 50%; inhibition at 30 µM ([2]; B16-F10, Compound concentration: 30 μM): ≥ 50%; inhibition at 30 µM (HeLa (cervical cancer); [7]): ≥ 50%; inhibition at 30 µM [3, 8]: ≥ 50%; inhibition at 30 µM (HepG2 (liver cancer); [9]): ≥ 50%; inhibition at 30 µM (SW480 (colon cancer); Compound concentration: 30 μM): ≥ 50%; inhibition at 30 µM ([4]; A-431, Compound concentration: 30 μM): ≥ 50%
3 | CC1=C(CC(=O)O)c2ccc(F)c(F)c2/C1=C\c1cccc(Oc2ccccc2)c1 [C23, (Z)-2-(6,7-Difluoro-2-methyl-1-(3-phenoxybenzylidene)-1H-inden-3-yl)acetic acid] | < 30 | < 30 | 30 to 50 | ≥ 50 | 30 to 50 | ≥ 50 | ≥ 50 | ≥ 50 | < 30 | < 30 | < 30 | < 30 | < 30 | < 30 | < 30 | 
4 | O=C(O)CC1=C(Cc2ccccc2)/C(=C/c2ccc(COc3ccccc3)cc2)c2ccc(F)cc21 [A1, (Z)-2-(2-Benzyl-5-fluoro-1-(4-(phenoxymethyl)benzylidene)-1H-inden-3-yl)-acetic acid] | < 30 | 30 to 50 | 30 to 50 | ≥ 50 | ≥ 50 | ≥ 50 | ≥ 50 | ≥ 50 | 30 to 50 | ≥ 50 | ≥ 50 | ≥ 50 | 30 to 50 | ≥ 50 | > 80 | 
5 | CC1=C(CC(=O)O)c2cc(C)ccc2/C1=C\c1ccc(COc2ccccc2)cc1 [B4, (Z)-2-(2,5-Dimethyl-1-(4-(phenoxymethyl)benzylidene)-1H-inden-3-yl)acetic acid] | 30 to 50 | 30 to 50 | ≥ 50 | ≥ 50 | < 30 | 30 to 50 | 30 to 50 | 30 to 50 | 30 to 50 | < 30 | < 30 | 30 to 50 | ≥ 50 | < 30 | < 30 | inhibition at 30 µM [1, 10]: 30 to 50%; inhibition at 30 µM (HeLa (cervical cancer); read-out: Antiproliferative activity in cancerous cells, HELA): 30 to 50%; inhibition at 30 µM ([3]; read-out: Antiproliferative activity in cancerous cells, MDA-MB-231): < 30%; inhibition at 30 µM (HepG2 (liver cancer); read-out: Antiproliferative activity in cancerous cells, HepG2): < 30%
6 | CCc1ccc2c(c1)C(CC(=O)O)=C(C)/C2=C/c1ccc(COc2ccccc2)cc1 [B5, (Z)-2-(5-Ethyl-2-methyl-1-(4-(phenoxymethyl)benzylidene)-1H-inden-3-yl)acetic acid] | 30 to 50 | ≥ 50 | ≥ 50 | ≥ 50 | < 30 | ≥ 50 | < 30 | ≥ 50 | ≥ 50 | ≥ 50 | ≥ 50 | ≥ 50 | ≥ 50 | ≥ 50 | > 80 | 
7 | COc1ccc2c(c1)/C(=C\c1ccc(Oc3ccc(F)cc3)cc1)C(Cc1ccccc1)=C2CC(=O)O [C27, (Z)-2-(2-Benzyl-1-(4-(4-fluorophenoxy)benzylidene)-6-methoxy-1H-inden-3-yl)-acetic acid] | ≥ 50 | ≥ 50 | 30 to 50 | ≥ 50 | ≥ 50 | ≥ 50 | ≥ 50 | ≥ 50 | ≥ 50 | ≥ 50 | < 30 | ≥ 50 | < 30 | ≥ 50 | > 80 | 
8 | CC1=C(CC(=O)O)c2cccc(F)c2/C1=C\c1cccc(COc2ccccc2)c1 [B9, (Z)-2-(7-Fluoro-2-methyl-1-(3-(phenoxymethyl)benzylidene)-1H-inden-3-yl)-acetic acid] | 30 to 50 | 30 to 50 | < 30 | ≥ 50 | < 30 | 30 to 50 | 30 to 50 | 30 to 50 | < 30 | < 30 | < 30 | < 30 | < 30 | < 30 | 50 to 80 | inhibition at 30 µM [1, 10]: 30 to 50%
